Test results reported in ChEMBL document CHEMBL3352218, “Structural basis for inhibition of mycobacterial and human adenosine kinase by 7-substituted 7-(Het)aryl-7-deazaadenine ribonucleosides” (J Med Chem, 2014).

What follows are compounds tested on Mycobacterium tuberculosis (assay: microbe, parasite or virus in culture). Conditions: variant bovis BCG, 504 h.

| SMILES | IC50 |
| --- | --- |
| Nc1ncnc2c1c(-c1ccc(-c3ccccc3)cc1)cn2[C@@H]1O[C@H](CO)[C@@H](O)[C@H]1O | 1680 nM |
| Nc1ncnc2c1c(-c1cc[nH]n1)cn2[C@@H]1O[C@H](CO)[C@@H](O)[C@H]1O | 48000 nM |
| Nc1ncnc2c1c(-c1cn[nH]c1)cn2[C@@H]1O[C@H](CO)[C@@H](O)[C@H]1O | 3080 nM |
| Nc1ncnc2c1c(-c1cc3ccccc3o1)cn2[C@@H]1O[C@H](CO)[C@@H](O)[C@H]1O | 2270 nM |
| Nc1ncnc2c1c(-c1c[nH]cn1)cn2[C@@H]1O[C@H](CO)[C@@H](O)[C@H]1O | > 100000 nM |
| CC(C)c1ccc(-c2cn([C@@H]3O[C@H](CO)[C@@H](O)[C@H]3O)c3ncnc(N)c23)cc1 | 5290 nM |
| Nc1ncnc2c1c(-c1ccc(C(F)(F)F)cc1)cn2[C@@H]1O[C@H](CO)[C@@H](O)[C@H]1O | 1160 nM |
| Nc1ncnc2c1c(-c1ccsc1)cn2[C@@H]1O[C@H](CO)[C@@H](O)[C@H]1O | 3930 nM |
| CSc1ccc(-c2cn([C@@H]3O[C@H](CO)[C@@H](O)[C@H]3O)c3ncnc(N)c23)cc1 | 360 nM |
| Nc1ncnc2c1c(-c1ccc(COc3cccc4ccccc34)cc1)cn2[C@@H]1O[C@H](CO)[C@@H](O)[C@H]1O | 6390 nM |
| Nc1ncnc2c1c(-c1cc3ccccc3c3ccccc13)cn2[C@@H]1O[C@H](CO)[C@@H](O)[C@H]1O | 1900 nM |
| CC(C)Oc1ccc(-c2cn([C@@H]3O[C@H](CO)[C@@H](O)[C@H]3O)c3ncnc(N)c23)cc1 | 3070 nM |
| Nc1ncnc2c1c(-c1ccc(-c3ccc4ccccc4c3)cc1)cn2[C@@H]1O[C@H](CO)[C@@H](O)[C@H]1O | 74400 nM |
| Nc1ncnc2c1c(-c1ccc3c(c1)OCO3)cn2[C@@H]1O[C@H](CO)[C@@H](O)[C@H]1O | 1380 nM |
| Nc1ncnc2c1c(-c1cccc3ccccc13)cn2[C@@H]1O[C@H](CO)[C@@H](O)[C@H]1O | 1870 nM |
| Nc1ncnc2c1c(-c1cccc3c1Oc1ccccc1S3)cn2[C@@H]1O[C@H](CO)[C@@H](O)[C@H]1O | 4530 nM |
| Nc1ncnc2c1c(/C=C/c1ccccc1)cn2[C@@H]1O[C@H](CO)[C@@H](O)[C@H]1O | 1300 nM |

| SMILES | IC50 |
| --- | --- |
| CC(C)c1cccc(-c2cn([C@@H]3O[C@H](CO)[C@@H](O)[C@H]3O)c3ncnc(N)c23)c1 | 6750 nM |
| COc1cc(-c2cn([C@@H]3O[C@H](CO)[C@@H](O)[C@H]3O)c3ncnc(N)c23)cc(OC)c1OC | 7050 nM |
| Nc1ncnc2c1c(-c1ccc3c4c(cccc14)CC3)cn2[C@@H]1O[C@H](CO)[C@@H](O)[C@H]1O | 1740 nM |
| Nc1ncnc2c1c(-c1cc[nH]c1)cn2[C@@H]1O[C@H](CO)[C@@H](O)[C@H]1O | 1120 nM |
| Nc1ncnc2c1c(-c1cccc3c1oc1ccccc13)cn2[C@@H]1O[C@H](CO)[C@@H](O)[C@H]1O | 190 nM |
| Nc1ncnc2c1c(-c1nccs1)cn2[C@@H]1O[C@H](CO)[C@@H](O)[C@H]1O | 2510 nM |
| Nc1ncnc2c1c(-c1ncc[nH]1)cn2[C@@H]1O[C@H](CO)[C@@H](O)[C@H]1O | > 100000 nM |
| Nc1ncnc2c1c(-c1ccc3ccccc3c1)cn2[C@@H]1O[C@H](CO)[C@@H](O)[C@H]1O | 390 nM |
| Cc1ccc(-c2cn([C@@H]3O[C@H](CO)[C@@H](O)[C@H]3O)c3ncnc(N)c23)cc1C | 1130 nM |
| Nc1ncnc2c1c(-c1ccc[nH]1)cn2[C@@H]1O[C@H](CO)[C@@H](O)[C@H]1O | 7270 nM |
| C#Cc1cn([C@@H]2O[C@H](CO)[C@@H](O)[C@H]2O)c2ncnc(N)c12 | 130 nM |
| Nc1ncnc2c1c(-c1cccc3c1Sc1ccccc1S3)cn2[C@@H]1O[C@H](CO)[C@@H](O)[C@H]1O | 44300 nM |
| COc1ccc(-c2cn([C@@H]3O[C@H](CO)[C@@H](O)[C@H]3O)c3ncnc(N)c23)cc1 | 2080 nM |
| CC(C)(C)c1ccc(-c2cn([C@@H]3O[C@H](CO)[C@@H](O)[C@H]3O)c3ncnc(N)c23)cc1 | 4540 nM |
| Nc1ncnc2c1c(-c1ccccc1)cn2[C@@H]1O[C@H](CO)[C@@H](O)[C@H]1O | 1340 nM |
| Nc1ncnc2c1c(-c1ccoc1)cn2[C@@H]1O[C@H](CO)[C@@H](O)[C@H]1O | 8310 nM |
| Nc1ncnc2c1c(-c1c[nH]nn1)cn2[C@@H]1O[C@H](CO)[C@@H](O)[C@H]1O | 69000 nM |
